These results are taken from ChEMBL document CHEMBL1933003, “Cytotoxic esterified diterpenoid alkaloid derivatives with increased selectivity against a drug-resistant cancer cell line” (Bioorg Med Chem Lett, 2012).

Bounds are passed on as bounds.

Usually EC50 stands for the concentration that produces a half-maximal response. A low value points to greater potency.

The subject of one experiment is A549. Nature of the experiment: Cytotoxicity against human A549 cells by sulforhodamine B assay. It is filed as functional, cell-based. Background: In SRB staining, fixed cells bind dye roughly in proportion to their protein.
The next experiment relates to DU-145. Nature of the experiment: Cytotoxicity against human DU145 cells by sulforhodamine B assay. The format is functional, cell-based.
Experiment [1] has as its system KB. Briefly: Cytotoxicity against human KB cells by sulforhodamine B assay. It is filed as functional, cell-based.
In experiment [2] the test system is KB. Nature of the experiment: Cytotoxicity against multi-drug resistant variant vincristine resistant human KB cells expressing P-glycoprotein by sulforhodamine B assay. It is filed as functional, cell-based.
Experiment [3] concerns KB. Briefly: Selectivity ratio of EC50 for human KB cells to EC50 for multi-drug resistant variant vincristine resistant human KB cells expressing P-glycoprotein by sulforhodamine B assay. The format is functional.

Take `CCN1C[C@]2(C)CC[C@H](OC)[C@@]34[C@@H]5C[C@H]6[C@H](OC)[C@@H]5[C@@]5(C[C@@H]6OC)OCO[C@@]5([C@@H](OC(=O)c5ccc(Cl)cc5)[C@H]23)[C@@H]14`: the EC50 in the experiment on A549 was determined as 14.8 µM; in the experiment with DU-145 it was 7.4 µM; in the experiment with KB [1] it was 8.85 µM; in the experiment with KB [2], 8.27 µM. In the experiment with KB [3], the “Ratio EC50” value was determined as 1.07.

Regarding `CCN1C[C@]2(C)CC[C@H](OC)[C@@]34[C@@H]5C[C@H]6[C@H](OC)[C@@H]5[C@@]5(C[C@@H]6OC)OCO[C@@]5([C@@H](OC(=O)c5cccc(C(F)(F)F)c5)[C@H]23)[C@@H]14`, the EC50 in the experiment on A549 is over 20 µM; in the experiment on DU-145, 12.6 µM; with KB [1], 14.9 µM; in the experiment with KB [2], 11.9 µM. In addition, the “Ratio EC50” value in the experiment with KB [3] was 1.25.

With `CCN1C[C@]2(C)CC[C@H](OC)[C@@]34[C@@H]5C[C@H]6[C@H](OC)[C@@H]5[C@@]5(C[C@@H]6OC)OCO[C@@]5([C@@H](OC(=O)/C=C/c5cccc(C(F)(F)F)c5)[C@H]23)[C@@H]14`, the EC50 in the experiment with A549 is 10.2 µM; in the experiment on DU-145 it was 15.1 µM; in the experiment with KB [1] it was over 20 µM; in the experiment on KB [2], 9.1 µM. In addition, in the experiment on KB [3], the “Ratio EC50” value was over 2.31.

`CCN1C[C@]2(C)CC[C@H](OC)[C@@]34[C@@H]5C[C@H]6[C@H](OC)[C@@H]5[C@@]5(C[C@@H]6OC)OCO[C@@]5([C@@H](OC(=O)/C=C/c5ccc(F)cc5)[C@H]23)[C@@H]14`: the EC50 in the experiment with A549, in the experiment with DU-145, with KB [1] and with KB [2] was over 20 µM each time.

As for `CCN1C[C@]2(C)CC[C@H](OC)[C@@]34[C@@H]5C[C@H]6[C@H](OC)[C@@H]5[C@@]5(C[C@@H]6OC)OCO[C@@]5([C@@H](OC(=O)c5ccc(C(F)(F)F)nc5)[C@H]23)[C@@H]14`, the EC50 in the experiment on A549 is over 20 µM; in the experiment with DU-145 it was over 20 µM; in the experiment on KB [1], over 20 µM; in the experiment on KB [2], 18.7 µM.

With `CCN1C[C@]2(C)CC[C@H](OC)[C@@]34[C@@H]5C[C@H]6[C@H](OC)[C@@H]5[C@@]5(C[C@@H]6OC)OCO[C@@]5([C@@H](OC(=O)c5ccc(OCc6ccccc6)cc5)[C@H]23)[C@@H]14`, the EC50 in the experiment on A549 came out at 14.1 µM; with DU-145, 13.2 µM; with KB [1], 6.76 µM; with KB [2], 4.22 µM. In the experiment with KB [3], the “Ratio EC50” value is 1.6.

Turning to `CCN1C[C@]2(C)CC[C@H](OC)[C@@]34[C@@H]5C[C@H]6[C@H](OC)[C@@H]5[C@@]5(C[C@@H]6OC)OCO[C@@]5([C@@H](OC(=O)c5ccc(C(F)(F)F)c(F)c5)[C@H]23)[C@@H]14`, the EC50 with A549 is 16.5 µM; with DU-145, 11.3 µM; with KB [1] it was 5.44 µM; in the experiment on KB [2] it was 4.4 µM. In addition, in the experiment on KB [3], the “Ratio EC50” value stood at 1.24.

In the case of `CCN1C[C@]2(C)CC[C@H](OC)[C@@]34[C@@H]5C[C@H]6[C@H](OC)[C@@H]5[C@@]5(C[C@@H]6OC)OCO[C@@]5([C@@H](OC(=O)c5ccc(F)c(C)c5)[C@H]23)[C@@H]14`, the EC50 with A549 is over 20 µM; in the experiment with DU-145, 19.8 µM; in the experiment on KB [1], 12.1 µM; in the experiment with KB [2], 4.71 µM. Moreover, the “Ratio EC50” value with KB [3] was 2.57.

As to `CCN1C[C@]2(C)CC[C@H](OC)[C@@]34[C@@H]5C[C@H]6[C@H](OC)[C@@H]5[C@](O)(C[C@@H]6OC)[C@](O)([C@@H](O)[C@H]23)[C@@H]14`, the EC50 in the experiment with A549, with DU-145, with KB [1] and with KB [2] was over 20 µM in each case.

Regarding `CCN1C[C@]2(C)CC[C@H](OC)[C@@]34[C@@H]5C[C@H]6[C@H](OC)[C@@H]5[C@](O)(C[C@@H]6OC)[C@](O)([C@@H](OC(=O)c5cccc(C(F)(F)F)c5)[C@H]23)[C@@H]14`, the EC50 with A549, in the experiment with DU-145, in the experiment on KB [1] and with KB [2] was over 20 µM in each case.

For the compound `CCN1C(=O)[C@]2(C)CC[C@H](OC)[C@@]34[C@@H]5C[C@H]6[C@H](OC)[C@@H]5[C@@]5(C[C@@H]6OC)OCO[C@@]5([C@@H](O)[C@@H]32)[C@@H]14`, the EC50 in the experiment with A549, in the experiment on DU-145, with KB [1] and in the experiment with KB [2] was over 20 µM in each case.

On to `CCN1C[C@]2(C)CC[C@H](OC)[C@@]34C1[C@@]1(OCO[C@@]15C[C@H](OC)[C@H]1C[C@@H]3[C@@H]5[C@H]1OC)[C@@H](OC(=O)c1ccc(OC(F)(F)F)cc1)[C@H]24` (single isomer, unassigned), for which the EC50 is 18.7 µM in the experiment with A549, 20.3 µM in the experiment on DU-145, 20.1 µM with KB [1] and 18.9 µM in the experiment with KB [2].

As to `CCN1C[C@]2(C)CC[C@H](OC)[C@@]34C1[C@@]1(OCO[C@@]15C[C@H](OC)[C@H]1C[C@@H]3[C@@H]5[C@H]1OC)[C@@H](OC(=O)c1ccc(F)cc1)[C@H]24` (single isomer, unassigned), the 50% effective concentration (EC50) with A549 was over 20 µM; in the experiment on DU-145, 15.6 µM; in the experiment on KB [1] it was over 20 µM; in the experiment with KB [2], 15 µM.

Take `CCN1C[C@]2(C)CC[C@H](OC)[C@@]34C1[C@@]1(OCO[C@@]15C[C@H](OC)[C@H]1C[C@@H]3[C@@H]5[C@H]1OC)[C@@H](OC(=O)c1ccc([N+](=O)[O-])cc1)[C@H]24` (single isomer, unassigned): the concentration giving a half-maximal response (EC50) in the experiment with A549 is over 20 µM; in the experiment with DU-145, 17.2 µM; in the experiment with KB [1], over 20 µM; with KB [2] it was 17.7 µM.

As for `CCN1C[C@]2(C)CC[C@H](OC)[C@@]34C1[C@@]1(OCO[C@@]15C[C@H](OC)[C@H]1C[C@@H]3[C@@H]5[C@H]1OC)[C@@H](OC(=O)c1ccc(OC)cc1)[C@H]24` (single isomer, unassigned), the EC50 in the experiment on A549, with DU-145, in the experiment with KB [1] and with KB [2] was over 20 µM each time.

For `CCN1C[C@]2(C)CC[C@H](OC)[C@@]34C1[C@@]1(OCO[C@@]15C[C@H](OC)[C@H]1C[C@@H]3[C@@H]5[C@H]1OC)[C@@H](OC(=O)c1ccc(-c3ccccc3)cc1)[C@H]24` (single isomer, unassigned), the EC50 with A549 is over 20 µM; in the experiment on DU-145, 17.1 µM; in the experiment on KB [1], over 20 µM; in the experiment on KB [2], 17.4 µM.

Consider `CCN1C[C@]2(C)CC[C@H](OC)[C@@]34C1[C@@]1(OCO[C@@]15C[C@H](OC)[C@H]1C[C@@H]3[C@@H]5[C@H]1OC)[C@@H](OC(=O)c1ccc(SC(F)(F)F)cc1)[C@H]24` (single isomer, unassigned), for which the EC50 with A549 is over 20 µM; in the experiment with DU-145, 16.6 µM; in the experiment with KB [1], over 20 µM; in the experiment on KB [2], 17.9 µM.

Take `CCN1C[C@]2(C)CC[C@H](OC)[C@@]34C1[C@@]1(OCO[C@@]15C[C@H](OC)[C@H]1C[C@@H]3[C@@H]5[C@H]1OC)[C@@H](OC(=O)c1ccc(C(=O)OC)cc1)[C@H]24` (single isomer, unassigned): the EC50 with A549, in the experiment on DU-145, with KB [1] and with KB [2] was over 20 µM in each case.

As to `CCN1C[C@]2(C)CC[C@H](OC)[C@@]34C1[C@@]1(OCO[C@@]15C[C@H](OC)[C@H]1C[C@@H]3[C@@H]5[C@H]1OC)[C@@H](OC(=O)c1cc([N+](=O)[O-])cc([N+](=O)[O-])c1)[C@H]24` (single isomer, unassigned), the EC50 was over 20 µM in the experiment with A549, over 20 µM in the experiment on DU-145, 19.1 µM in the experiment on KB [1] and 20.3 µM with KB [2].

For the compound `CCN1C[C@]2(C)CC[C@H](OC)[C@@]34C1[C@@]1(OCO[C@@]15C[C@H](OC)[C@H]1C[C@@H]3[C@@H]5[C@H]1OC)[C@@H](OC(=O)c1cc(OC)c(OC)c(OC)c1)[C@H]24` (single isomer, unassigned), the EC50 with A549, with DU-145, with KB [1] and with KB [2] was over 20 µM throughout.

As to `CCN1C[C@]2(C)CC[C@H](OC)[C@@]34C1[C@@]1(OCO[C@@]15C[C@H](OC)[C@H]1C[C@@H]3[C@@H]5[C@H]1OC)[C@@H](OC(=O)c1cc(F)c(F)c(F)c1)[C@H]24` (single isomer, unassigned), the EC50 was 19.9 µM with A549, 16.9 µM in the experiment with DU-145, 14.6 µM in the experiment on KB [1] and 6.8 µM in the experiment with KB [2]. For the same compound, the “Ratio EC50” value in the experiment on KB [3] came to 2.15.

Turning to `CCN1C[C@]2(C)CC[C@H](OC)[C@@]34C1[C@@]1(OCO[C@@]15C[C@H](OC)[C@H]1C[C@@H]3[C@@H]5[C@H]1O)[C@@H](O)[C@H]24` [DELPHELINE], the EC50 in the experiment on A549, in the experiment on DU-145, in the experiment with KB [1] and in the experiment on KB [2] was over 20 µM in each case.

As to `CCN1C[C@]2(C)CC[C@H](OC)[C@@]34[C@@H]5C[C@H]6[C@H](OC)[C@@H]5[C@@]5(C[C@@H]6OC)OCO[C@@]5(C(=O)[C@H]23)[C@@H]14` [PACININE], the EC50 with A549, in the experiment with DU-145, in the experiment on KB [1] and with KB [2] was over 20 µM each time.

Turning to `CC(=O)O[C@H]1C(=O)[C@@]2(C)[C@H]([C@H](OC(=O)c3ccccc3)[C@]3(O)C[C@H](OC(=O)[C@H](O)[C@@H](NC(=O)c4ccccc4)c4ccccc4)C(C)=C1C3(C)C)[C@]1(OC(C)=O)CO[C@@H]1C[C@@H]2O` [PACLITAXEL], the EC50 in the experiment with A549 amounted to 0.0064 µM; in the experiment with DU-145, 0.0059 µM; in the experiment on KB [1], 0.006 µM; in the experiment on KB [2], 0.76 µM.

With `CCN1C[C@]2(C)CC[C@H](OC)[C@@]34[C@@H]5C[C@H]6[C@H](O)[C@@H]5[C@@]5(C[C@@H]6OC)OCO[C@@]5(C(=O)[C@H]23)[C@@H]14` [YUNNADELPHININE], the EC50 in the experiment on A549, in the experiment with DU-145, in the experiment with KB [1] and with KB [2] was over 20 µM throughout.
